Article PMC7145299, “New Cysteine Protease Inhibitors: Electrophilic (Het)arenes and Unexpected Prodrug Identification for the Trypanosoma Protease Rhodesain” (Molecules, 2020)
Read-outs that look alike come from different tables or passages of the source.

Assays:
[1] = target: T1, cathepsin L (Homo sapiens, UniProt P07711); assay: biochemical; settings: for inhibition at 20 µM: read-out: % inhibition of Cath. L
Protocol: (§1) Inhibition of cathepsins and rhodesain was tested with the fluorogenic substrate Cbz-Phe-Arg-AMC as described previously [19]. First, a screening at 20 µM inhibitor concentration was performed. For compounds showing >60% inhibition at this concentration, the IC50 values were determined. […] The respective Ki values (Table 1) were determined from plots of the IC50 values against substrate concentration according to the Cheng–Prusoff relationship [46].
(§2) Enzyme assays / Rhodesain and Cathepsins
(§3) The assays were performe d as described previously [7,8] by incubating rhodesain in 190 μL
(§4) assay buffer (50 mM sodium acetate pH 5.5, 5 mM EDTA, 200 mM NaCl, 0.005% Brij) with 5 μL of an
(§5) inhibitor DMSO stoc k solution of a given concentrati on for 10 min at room te mperature. The reaction
(§6) was started by adding 5 μ L of 400 μM Z-Phe-Arg-7-amino-4-methylc umari n (Z-Phe-Arg-AMC) in
(§7) DMSO. The released AMC was excited at 380 nm and the upc oming fl uoresce nce measured at 460
(§8) nm at 25 °C over time. The final substrate concentration was 10 μM.
(§9) Quenching of the fluoresc ence of the released AMC by the inhibitors was acc ounted for as
described previously [9].
(§10) The cathepsin L assays wer e performed accordi ngly in 50 mM Tris buffer (pH 6.5, 5 mM EDTA,
(§11) 200 mM NaCl, 0.005% Brij) and 250 μM Z-Phe-Arg-AMC concentration (final conce ntration: 6.25 μM).
(§12) The cathepsin B (Calbioche m) assays were performed accordingly in 50 mM Tris buffer pH 6.5,
(§13) 5 mM EDTA, 200 mM NaCl and 0.005% Brij leading to final enzyme and substrate concentrati ons of
(§14) Final inhibitor c once ntrations ranged from 0.001 μM to 100.0 μM.

[2] = target: cathepsin B (Homo sapiens, UniProt P07858); assay: biochemical; settings: for inhibition at 20 µM: read-out: % inhibition of Cath. B
Protocol: as §1, §2, §3, §4, §5, §6, §7, §8, §9
described previously [9].
as §10, §11, §12, §13, §14

[3] = target: T2, serine protease of the Dengue virus (DENV PR) (Dengue virus type 2, UniProt P29990); assay: Dengue virus protease inhibition assay; type: biochemical; settings: 20 µM inhibitor
T2 construct: the serine protease of the Dengue virus (DENV PR)

[4] = target: T3, rhodesain (Trypanosoma brucei rhodesiense, UniProt Q95PM0, S297A); assay: Rhodesain inhibition, fluorogenic substrate Cbz-Phe-Arg-AMC; type: biochemical; settings: for % inhibition of Rhod.: 20 µM inhibitor
[5] = target: T4, S. aureus sortase A (Staphylococcus aureus, UniProt Q2FV99); assay: biochemical; settings: 20 µM final inhibitor concentration
T4 construct: made in house

[6] = target: T1, cathepsin L; settings: IC50 increases linearly with substrate concentration
Protocol: as §1, §2, §3, §4, §5, §6, §7, §8, §9
described previously [9].
as §10, §11, §12, §13, §14

[7] = type: physicochemical; settings: 800 µM in rhodesain sample buffer pH 5.5 with 10% d6-DMSO
Protocol: The interaction of the fluorinated inhibitors 7 and 8 with rhodesain was probed via ^19F NMR spectroscopy (Figure 3). […] To probe the rhodesain-mediated turnover of 7 into 8, we recorded time-resolved ^19F NMR spectra of 7 (800 µM) in the presence of 4 µM rhodesain (Figure 3b). During the measurement, the solution became clear and a dramatic difference in the chemical shift occurred to values identical to those observed for compound 8. The reaction was subsequently analyzed by MS (see Section 2.4), which confirmed the formation of the free acid 8.
Table S1 (DP4+)-results for product 12.
Lyophilized rhode sain was reconstituted at 4 mg/mL in 50 mM Na acetate, pH 5.5, 200 mM NaCl, 5 mM EDTA. […] After the addition of the inhibit ors at a final concentrati on of 0.1 mM, samples were analyzed by LC-MS using a nanoAcquity UP LC system (Waters Corporation) coupled to a nano-ESI-Q-TOF mass spectrome ter (Synapt G2-S HDMS, Waters Corporation). […]
For 19F NMR, c ompounds 7 (800 μM) or 8 (400 μM) were dissolved in rhodesain sample buffer (50 mM NaAcetate, pH 5.5, 200 mM NaCl, 5 mM Na-EDTA, 1 mM TCEP) with 10% d6-DMSO from a 40 mM inhibitor stock in d6-DMSO. Spectra were recorded at 303 K on a Bruker Avance 3 600 MHz spectrome ter with a Prodigy TCI cryoprobe (Bruker, Karlsruhe). Because 1H and 19F are measured in the same coil, protons wer e not decoupled during 19F acquisition. […]

[8] = tested on: T. b. brucei 449 cell line; assay: T. b. brucei cell survival assay (ATPlite); type: cell-based; settings: Trypanosoma brucei, after 24 h, read-out: EC50 anti-trypanosomal activity
Protocol: Ester 7 and acid 8 were tested for their anti-trypanosomal activity against T. brucei brucei using the ATPlite assay according to previously published procedures. […] The differences in anti-protease and anti-trypanosomal activity between the lipophilic ester 7 and the more hydrophilic acid 8 might be due to different cell permeabilities of the compounds. […]
NaCl) followed by 45 min incubation at room te mpe rature. […] 5 μL of […] Z-Phe-Arg-AMC were added to 195 μL of rhodesain-8 or rhodesai n-DMSO stock solutions and the upcoming fluorescence was measured over time to assure complete inhibition (see Figure SI1)). […]
For the dilution assay, […] of the rhodesain-8 stock solution were diluted with […] 50 mM sodiu m acetate buffer (pH 5.5 with 5 mM EDTA, 200 mM NaCl 5 mM DTT) and the recovery of the enzymatic activity was measured immediately after adding […] of 400 μM Z-Phe-Arg-AMC (see […]
90 μL HMI-9 medium containing 2500 cells/mL were distributed in 96-well microplate s (PerkinEl mer). […] 50 μL of ATPlite 1 step solution (PerkinEl mer) was added to each well of the microplate and luminesce nce measured at room temperature with an Infinite® M200 PRO plate reader (Tecan Trading AG). The measured values were plotted against the c omp ound concentrati ons top yie ld the dose-resp onse c urve. The EC50 values were calculated using GraF it version 5.013 (Erithacus Software Ltd.). […]

[9] = type: physicochemical; settings: assay buffer pH 5.5 without protease, 24 h, room temperature
[10] = target: T3, rhodesain; assay: Hydrolysis assay of ester 7 with rhodesain, LC-MS; type: biochemical; settings: room temperature, 24 h

T3 sequence (Q95PM0 126-342 S297A): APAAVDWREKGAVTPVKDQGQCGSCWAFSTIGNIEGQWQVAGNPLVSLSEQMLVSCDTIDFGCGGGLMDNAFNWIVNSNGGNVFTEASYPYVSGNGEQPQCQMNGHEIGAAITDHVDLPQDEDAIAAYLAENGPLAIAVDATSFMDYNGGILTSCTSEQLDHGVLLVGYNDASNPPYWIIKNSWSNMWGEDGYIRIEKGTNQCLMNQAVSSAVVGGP
T4 sequence (Q2FV99 whole entry): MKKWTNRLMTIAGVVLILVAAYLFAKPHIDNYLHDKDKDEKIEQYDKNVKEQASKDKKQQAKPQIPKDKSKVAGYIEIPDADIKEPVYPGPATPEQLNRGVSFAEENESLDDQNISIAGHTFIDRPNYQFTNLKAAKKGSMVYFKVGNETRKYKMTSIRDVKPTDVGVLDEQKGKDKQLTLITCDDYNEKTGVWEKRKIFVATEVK
T1 sequence (P07711 114-333): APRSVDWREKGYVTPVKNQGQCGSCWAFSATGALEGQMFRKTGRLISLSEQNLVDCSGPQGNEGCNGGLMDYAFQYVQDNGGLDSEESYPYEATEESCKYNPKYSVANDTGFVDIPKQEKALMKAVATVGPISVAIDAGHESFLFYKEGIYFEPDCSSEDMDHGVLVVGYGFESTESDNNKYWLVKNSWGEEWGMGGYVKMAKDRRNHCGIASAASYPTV
T2 sequence (P29990 1394-1440): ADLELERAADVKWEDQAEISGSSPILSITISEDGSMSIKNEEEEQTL
T2 sequence (P29990 1476-1653): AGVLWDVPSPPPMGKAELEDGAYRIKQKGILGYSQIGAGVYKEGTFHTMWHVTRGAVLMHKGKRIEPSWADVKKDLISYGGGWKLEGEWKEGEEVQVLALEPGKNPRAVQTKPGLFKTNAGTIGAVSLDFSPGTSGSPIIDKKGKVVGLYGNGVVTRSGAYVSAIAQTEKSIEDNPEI

Work on CC(C)C[C@H](NC(=O)[C@H](Cc1ccccc1)NC(=O)c1ccc(Cl)nc1Cl)C(=O)OCc1ccccc1 [Compound 1] yielded an inhibition at 20 µM [1] of 57%, an inhibition at 20 µM [2] of 16% and an inhibition at 20 µM [3] of 19%.

In the case of CC(C)C[C@H](NC(=O)[C@H](Cc1ccccc1)Nc1cc(Cl)ncn1)C(=O)OCc1ccccc1 [Compound 2], the inhibition at 20 µM [1] is reported as 56%, the inhibition at 20 µM [2] is reported as 33% and the inhibition at 20 µM [3] is reported as 24%.

Work on CC(C)C[C@H](NC(=O)[C@H](Cc1ccccc1)Nc1cc(F)c([N+](=O)[O-])cc1[N+](=O)[O-])C(=O)OCc1ccccc1 [Compound 3] yielded an inhibition at 20 µM [1] of 60%, an inhibition at 20 µM [2] of 22% and an inhibition at 20 µM [3] of 28%.

With CC(C)C[C@H](NC(=O)[C@H](Cc1ccccc1)NC(=O)c1cccc([N+](=O)[O-])c1F)C(=O)OCc1ccccc1 [Compound 4] the “% inhibition of Rhod.” value [4] was 75%, the Ki ([4]; read-out: Ki Rhod.) was 290 nM and the inhibition at 20 µM [5] was 11%. For the same compound, the “inhibition mode from IC50 at different substrate concentrations” value [6] was “competitive inhibition”, the Ki [1] was 660 nM and the inhibition at 20 µM [1] was 99%. It also gave an inhibition at 20 µM [2] of 20% and an inhibition at 20 µM [3] of 10%.

CC(C)C[C@H](NC(=O)[C@H](Cc1ccccc1)NC(=O)Nc1ccc(F)c([N+](=O)[O-])c1)C(=O)OCc1ccccc1 [Compound 5] showed an inhibition at 20 µM [1] of 8%, an inhibition at 20 µM [2] of 10% and an inhibition at 20 µM [3] of 11%.

Compound CC(C)C[C@H](NC(=O)[C@H](Cc1ccccc1)NC(=O)c1cc([N+](=O)[O-])ccc1F)C(=O)OCc1ccccc1 [Compound 6] has an inhibition at 20 µM [1] of 50%, an inhibition at 20 µM [2] of 21% and an inhibition at 20 µM [3] of 12%.

In the case of CC(C)C[C@H](NC(=O)[C@H](Cc1ccccc1)Nc1cc([N+](=O)[O-])c([N+](=O)[O-])cc1F)C(=O)OCc1ccccc1 [Compound 7], the solubility [7] is reported as “poor solubility”, the EC50 [8] is reported as 95.3 nM and the “hydrolysis of ester by reaction buffer” value [9] is reported as “not hydrolyzed”. The “% inhibition of Rhod.” value [4] was 45/nd %, the inhibition at 20 µM [5] was 16% and the “inhibition mode from IC50 at different substrate concentrations” value [6] was “competitive inhibition mode”. For the same compound, the Ki [1] was 1600 nM, the inhibition at 20 µM [1] was 98% and the “conversion of ester into free acid by catalytically active rhodesain” value [10] was “complete conversion”. For the same compound, the Ki [2] was 4400 nM, the inhibition at 20 µM [2] was 63% and the inhibition at 20 µM [3] was 31%.

In the case of CC(C)C[C@H](NC(=O)[C@H](Cc1ccccc1)Nc1cc([N+](=O)[O-])c([N+](=O)[O-])cc1F)C(=O)O [Compound 8], the EC50 [8] is reported as 18500 nM, the Ki [4] is reported as 4 nM and the “reversibility of rhodesain inhibition” value ([4]; IC50 at 10 min vs 45 min preincubation, dilution assay) is reported as “reversible inhibition”. It also gave an inhibition at 20 µM [5] of 0%, a Ki [1] of 3000 ± 900 nM and a Ki [2] of 1500 ± 290 nM.
